In ChEMBL document CHEMBL1773056 (Bioorg Med Chem Lett, 2011):

Columns and labels:
[1] = target: T1, 5-hydroxytryptamine receptor 1A (Homo sapiens, UniProt P08908); assay: biochemical; format: cell-based, HeLa
T1 sequence (P08908 whole entry): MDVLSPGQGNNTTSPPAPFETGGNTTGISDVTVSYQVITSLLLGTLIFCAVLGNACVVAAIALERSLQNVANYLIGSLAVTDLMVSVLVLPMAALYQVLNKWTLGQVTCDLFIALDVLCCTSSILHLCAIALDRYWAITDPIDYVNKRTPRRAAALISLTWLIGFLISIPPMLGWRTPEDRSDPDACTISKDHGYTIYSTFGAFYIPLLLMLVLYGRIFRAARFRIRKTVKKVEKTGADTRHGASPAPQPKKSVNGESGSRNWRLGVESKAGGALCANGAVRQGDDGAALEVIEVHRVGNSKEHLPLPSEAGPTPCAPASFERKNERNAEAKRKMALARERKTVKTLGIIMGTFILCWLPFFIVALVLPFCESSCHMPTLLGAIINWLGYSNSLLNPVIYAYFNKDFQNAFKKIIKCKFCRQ

[2] = target: D(2) dopamine receptor (Homo sapiens, UniProt P14416); assay: biochemical; format: cell-based, CHO
[3] = target: 5-hydroxytryptamine receptor 2A (Homo sapiens, UniProt P28223)
[4] = in vivo; details: rat, po
[5] = in vivo; details: rat, iv, 1 mg/kg
[6] = in vivo; details: rat, iv, 1 mg/kg; remark: listed apart in the source
[7] = in vivo; details: rhesus monkey, iv, 1 mg/kg
[8] = in vivo; details: rhesus monkey, iv, 1 mg/kg; remark: listed apart in the source
[9] = species: Rattus norvegicus; assay: animal or person; format: functional; details: po
[10] = in vivo; details: rhesus monkey, po, 3 mg/kg
[11] = in vivo; details: rat, po, 3 mg/kg
[12] = in vivo; details: rhesus monkey, iv, 1 mg/kg; remark: listed apart in the source
[13] = species: Mus musculus; format: functional, Brain
[14] = in vivo; details: rat, po, 3 mg/kg; remark: listed apart in the source
[15] = in vivo; details: rhesus monkey, po, 3 mg/kg; remark: listed apart in the source
[16] = in vivo; details: rat, iv, 1 mg/kg; remark: listed apart in the source
[17] = in vivo; details: rhesus monkey, po, 3 mg/kg; remark: listed apart in the source
[18] = in vivo; details: rat, po, 3 mg/kg; remark: listed apart in the source
[19] = species: Mus musculus; assay: animal or person; details: po, read-out: MED
[20] = species: Rattus norvegicus; format: functional
[21] = species: Mus musculus; details: in vivo
[22] = species: Rattus norvegicus; assay: animal or person; format: functional; details: po; remark: listed apart in the source
[23] = species: Mus musculus; format: functional, Brain; remark: listed apart in the source

Chain of D(2) dopamine receptor (P14416 whole entry): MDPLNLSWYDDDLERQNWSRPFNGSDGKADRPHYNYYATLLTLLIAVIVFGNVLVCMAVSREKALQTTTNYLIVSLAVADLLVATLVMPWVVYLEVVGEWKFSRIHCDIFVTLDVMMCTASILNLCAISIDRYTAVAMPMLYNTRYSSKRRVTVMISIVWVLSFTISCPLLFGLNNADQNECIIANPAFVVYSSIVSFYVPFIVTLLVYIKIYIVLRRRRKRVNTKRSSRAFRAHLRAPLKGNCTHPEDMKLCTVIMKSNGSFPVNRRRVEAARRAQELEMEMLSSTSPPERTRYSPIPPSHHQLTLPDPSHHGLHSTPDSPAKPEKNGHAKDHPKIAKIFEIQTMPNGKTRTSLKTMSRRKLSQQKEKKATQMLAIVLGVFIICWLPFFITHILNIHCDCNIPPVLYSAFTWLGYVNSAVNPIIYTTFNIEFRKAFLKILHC
Chain of 5-hydroxytryptamine receptor 2A (P28223 whole entry): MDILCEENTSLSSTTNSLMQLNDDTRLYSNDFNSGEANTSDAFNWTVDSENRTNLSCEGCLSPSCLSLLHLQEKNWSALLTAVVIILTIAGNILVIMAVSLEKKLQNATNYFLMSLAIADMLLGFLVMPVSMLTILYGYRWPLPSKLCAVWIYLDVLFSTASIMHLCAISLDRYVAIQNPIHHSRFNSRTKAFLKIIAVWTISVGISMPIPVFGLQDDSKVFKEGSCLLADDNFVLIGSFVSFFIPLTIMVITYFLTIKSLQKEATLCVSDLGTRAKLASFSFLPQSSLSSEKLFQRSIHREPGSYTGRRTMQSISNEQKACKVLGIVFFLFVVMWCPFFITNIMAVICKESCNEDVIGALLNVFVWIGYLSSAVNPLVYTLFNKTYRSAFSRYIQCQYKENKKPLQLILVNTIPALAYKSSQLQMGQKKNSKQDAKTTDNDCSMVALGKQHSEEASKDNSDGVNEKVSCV

Row | Structure (SMILES) | Ki [1] | Ki [3] | other results
1 | O=C1CCc2ccc(OCCCCN3CCN(c4cccc5c4OCCC5)CC3)nc2N1 | 1.1 nM | 0.19 nM | Ki [2]: 0.71 nM
2 | O=C1CCc2ccc(OCCCCN3CCN(c4cccc5cc(F)ccc45)CC3)nc2N1 | 1.2 nM | 3.5 nM | –
3 | Cc1cccc(N2CCN(CCCCOc3ccc4c(n3)NC(=O)CC4)CC2)c1C | – | 0.35 nM | –
4 | O=C1CCc2ccc(CCCCCN3CCN(c4cccc(Cl)c4Cl)CC3)nc2N1 | 11.4 nM | 0.79 nM | bioavailability [4]: 6%
5 | O=C1CCc2ccc(OCCCCN3CCN(c4cccc5c4CCCO5)CC3)nc2N1 | 0.78 nM | 1.3 nM | Ki [2]: 1 nM
6 | O=C1CCc2ccc(OCCCCN3CCN(c4cccc5cccc(F)c45)CC3)nc2N1 | 0.77 nM | 0.67 nM | Ki [2]: 1.7 nM
7 | O=C1CCc2ccc(OCCCCN3CCN(c4cccc(C(F)(F)F)c4Cl)CC3)nc2N1 | – | 12 nM | –
8 | O=C1CCc2ccc(OCCCCN3CCN(c4cc(F)cc5ccccc45)CC3)nc2N1 | 3.3 nM | 1.9 nM | –
9 | O=C1CCc2ccc(OCCCCN3CCN(c4cccc5ccccc45)CC3)nc2N1 [PF-00217830] | 3.7 nM | 0.14 nM | clearance [5]: 14.9 mL/min/kg; Vd [6]: 1.1 L/kg; clearance [7]: 5.8 mL/min/kg; Vd [8]: 2.6 L/kg; inhibition in vivo at 1 mg/kg [9]: 78%; Cmax [10]: 96 ng/mL; Tmax [11]: 1.2 h; half-life [12]: 13.6 h; inhibition (INH) [13]: 46%; Cmax [14]: 202 ng/mL; Tmax [15]: 5 h; half-life [16]: 6.8 h; bioavailability [17]: 20.5%; bioavailability [18]: 19.2%; minimal effective dose [19]: 0.3 mg/kg; inhibition (INH) [20]: 78%; MED [21]: > 10 mg/kg; inhibition in vivo at 0.3 mg/kg [22]: 31%
10 | O=c1ccc2ccc(OCCCCN3CCN(c4cccc5ccccc45)CC3)nc2[nH]1 | – | – | inhibition (INH) [23]: 45%; minimal effective dose [19]: 1 mg/kg; MED [21]: > 30 mg/kg
11 | Cc1ccccc1N1CCN(CCCCOc2ccc3c(n2)NC(=O)CC3)CC1 | – | 50.9 nM | –
12 | O=C1CCc2ccc(OCCCCN3CCN(c4cccc(F)c4Cl)CC3)nc2N1 | 1.7 nM | 31.2 nM | –
13 | O=C1CCc2ccc(OCCCCN3CCN(c4cccc5c(F)cccc45)CC3)nc2N1 | 3 nM | 3.3 nM | –
14 | Cc1c(Cl)cccc1N1CCN(CCCCOc2ccc3c(n2)NC(=O)CC3)CC1 | – | 1.5 nM | –

The next lines start with results.

Row | Ki [1] | Ki [3] | Structure (SMILES) | other results
15 | 14 nM | 1.6 nM | O=c1ccc2ccc(OCCCCN3CCN(c4cccc(Cl)c4Cl)CC3)nc2[nH]1 | –
16 | 17.7 nM | 0.13 nM | O=C1CCc2ccc(OCCCCN3CCN(c4cccc(Cl)c4Cl)CC3)nc2N1 | bioavailability [4]: 23%
17 | 1.1 nM | 0.28 nM | O=C1CCc2ccc(OCCCCN3CCN(c4cccc5ccc(F)cc45)CC3)nc2N1 | Ki [2]: 1.2 nM
18 | 40.7 nM | 2.9 nM | O=c1ccc2cnc(OCCCCN3CCN(c4cccc(Cl)c4Cl)CC3)cc2[nH]1 | –
19 | 4.6 nM | 15.9 nM | O=C1CCc2ccc(OCCCCN3CCN(c4ccccc4Cl)CC3)nc2N1 | –
20 | 52.7 nM | 3.2 nM | O=c1ccc2cnc(OCCCCN3CCN(c4cccc(Cl)c4Cl)CC3)nc2[nH]1 | –
21 | 0.84 nM | 6.7 nM | O=C1CCc2ccc(OCCCCN3CCN(c4c(F)ccc5ccccc45)CC3)nc2N1 | –
22 | 6.3 nM | 0.16 nM | O=C1CCc2ccc(OCCCCN3CCN(c4cccc5c4CCC5)CC3)nc2N1 | –
23 | 3.5 nM | 1.4 nM | O=C1CCc2ccc(OCCCCN3CCN(c4cccc(Cl)c4C(F)(F)F)CC3)nc2N1 | Ki [2]: 3 nM
24 | – | 0.5 nM | Cc1cccc(N2CCN(CCCCOc3ccc4c(n3)NC(=O)CC4)CC2)c1Cl | –
25 | 1.2 nM | 10.4 nM | O=C1CCc2ccc(OCCCCN3CCN(c4cccc(Cl)c4F)CC3)nc2N1 | –
26 | 28 nM | 0.09 nM | O=C1CCc2ccc(OCCCCN3CCN(c4cccc5c4CCCC5)CC3)nc2N1 | –
27 | – | 11.7 nM | O=C1CCc2ccc(OCCCCN3CCN(c4ccc(F)c5ccccc45)CC3)nc2N1 | –
